Measurements as given in ChEMBL document CHEMBL1201862, “PubChem BioAssay data set” (2004).
Active and inactive are the calls of the source.

Key:
[1] = Luminescence Cell-Based Dose Response HTS to Identify Inhibitors of 5'UTR Stem-Loop Driven Prion Protein mRNA Translation in H4 Neuroglioblastoma Cells. [Related pubchem assays: 1827 (Project Summary), 1813 (Primary HTS)]; assay type: functional
[2] = inhibitors of SNCA 5'UTR-driven reporter translation, confirmation, H4 neuroglioma cells, luminescence (AID 1988); assay type: functional, cell-based
[3] = inhibitors of firefly luciferase expression or activity, dose response, H4 neuroglioma cells, luminescence (AID 1990); assay type: functional, cell-based
[4] = molecular target: T1, Microphthalmia-associated transcription factor (Homo sapiens, UniProt O75030); assay: TRPM1 promoter luciferase signal decrease, dose response, MITF inhibitor project, cell-based, SK-MEL-5, cherry-picked, set 3 (AID 493073); assay type: functional
T1 sequence (O75030 whole entry): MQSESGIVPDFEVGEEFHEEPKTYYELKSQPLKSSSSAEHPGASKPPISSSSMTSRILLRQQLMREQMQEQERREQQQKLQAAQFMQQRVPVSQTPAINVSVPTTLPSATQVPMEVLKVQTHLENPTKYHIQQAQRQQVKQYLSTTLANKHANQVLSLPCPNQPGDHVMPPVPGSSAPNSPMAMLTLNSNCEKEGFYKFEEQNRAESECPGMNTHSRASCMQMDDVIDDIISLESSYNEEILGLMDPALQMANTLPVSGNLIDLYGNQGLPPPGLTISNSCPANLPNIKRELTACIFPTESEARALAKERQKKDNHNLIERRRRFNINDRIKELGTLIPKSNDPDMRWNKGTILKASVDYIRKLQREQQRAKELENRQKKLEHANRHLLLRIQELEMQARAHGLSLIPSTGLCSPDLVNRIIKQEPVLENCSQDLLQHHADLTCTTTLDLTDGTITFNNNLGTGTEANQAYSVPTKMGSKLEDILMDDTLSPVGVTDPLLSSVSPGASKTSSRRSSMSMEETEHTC

[5] = system: H4; assay: Luminescence Cell-Based Dose Response HTS to Identify Activators of 5'UTR Stem-Loop Driven Prion Protein mRNA Translation in H4 Neuroglioblastoma Cells. [Related pubchem assays: 1829 (Project Summary), 1814 (Primary HTS)]; assay type: functional; details: Homo sapiens
[6] = Luminescence Cell-Based Dose Confirmation HTS to Identify Activators of 5'UTR Stem-Loop Driven Alpha-Synuclein mRNA Translation in H4 Neuroglioblastoma Cells. [Related pubchem assays: 1829 (Project Summary), 1814 (Primary HTS)]; assay type: functional
[7] = molecular target: T2, Corticotropin-releasing factor receptor 2/Corticotropin-releasing factor-binding protein (Homo sapiens, UniProt P24387+Q13324); assay: Dose Response confirmation of uHTS hits for small molecule antagonists of the CRF-binding protein and CRF-R2 receptor complex.; assay type: functional; details: read-out: IC50_Mean
T2 sequence (Q13324 whole entry): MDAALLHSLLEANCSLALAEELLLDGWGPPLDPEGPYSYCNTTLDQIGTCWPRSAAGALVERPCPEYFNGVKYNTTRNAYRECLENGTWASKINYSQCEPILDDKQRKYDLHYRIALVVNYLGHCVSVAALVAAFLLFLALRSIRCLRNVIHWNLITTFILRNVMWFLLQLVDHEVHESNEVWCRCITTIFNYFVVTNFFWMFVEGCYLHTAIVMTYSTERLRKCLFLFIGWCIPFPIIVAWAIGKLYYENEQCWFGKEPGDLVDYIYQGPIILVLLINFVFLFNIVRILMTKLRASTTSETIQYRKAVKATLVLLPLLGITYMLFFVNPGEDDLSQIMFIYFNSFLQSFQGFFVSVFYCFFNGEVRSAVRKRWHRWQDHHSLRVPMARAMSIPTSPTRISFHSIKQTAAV
T2 sequence (P24387 whole entry): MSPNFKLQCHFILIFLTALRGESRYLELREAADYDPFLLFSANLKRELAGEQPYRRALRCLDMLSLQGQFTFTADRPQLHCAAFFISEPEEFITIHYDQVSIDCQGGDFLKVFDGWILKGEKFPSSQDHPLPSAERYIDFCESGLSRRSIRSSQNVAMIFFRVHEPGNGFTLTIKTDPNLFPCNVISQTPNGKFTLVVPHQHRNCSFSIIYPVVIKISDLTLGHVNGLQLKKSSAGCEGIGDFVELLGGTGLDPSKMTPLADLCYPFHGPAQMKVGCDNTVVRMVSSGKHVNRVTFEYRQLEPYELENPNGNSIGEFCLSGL

[8] = CRF-BP/CRF-R2 complex antagonists, dose response, cell-based, uHTS hits, 384-well (AID 651639); assay type: functional, Homo sapiens; details: read-out: IC50_Mean
[9] = molecular target: FAD-linked sulfhydryl oxidase ALR (Homo sapiens, UniProt P55789); assay: inhibitors of human ALR sulfhydryl oxidase, dose response, biochemical, H2O2 detection, luminescence, cherry-pick (AID 493248)
Sequence of FAD-linked sulfhydryl oxidase ALR (P55789 whole entry): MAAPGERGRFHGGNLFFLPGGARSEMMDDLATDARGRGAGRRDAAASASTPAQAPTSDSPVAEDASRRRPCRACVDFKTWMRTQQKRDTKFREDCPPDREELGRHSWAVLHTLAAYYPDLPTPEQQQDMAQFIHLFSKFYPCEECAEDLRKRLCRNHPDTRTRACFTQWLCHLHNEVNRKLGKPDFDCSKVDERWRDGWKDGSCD

[10] = molecular target: T2, Corticotropin-releasing factor receptor 2/Corticotropin-releasing factor-binding protein; assay: activators of CRF receptor 2 with binding protein – uHTS hits, confirmation (AID 602473); assay type: functional; details: read-out: EC50_Mean
[11] = Luminescence Cell-Based Dose Response HTS to Identify Activators of Luciferase Translation or Activity in H4 […] Cells. [Related pubchem assays: 1829 (Project Summary), 1814 (Primary HTS)]; assay type: functional
[12] = molecular target: T3, Histone-lysine N-methyltransferase NSD2 (Homo sapiens, UniProt O96028); assay type: biochemical
T3 sequence (O96028 whole entry): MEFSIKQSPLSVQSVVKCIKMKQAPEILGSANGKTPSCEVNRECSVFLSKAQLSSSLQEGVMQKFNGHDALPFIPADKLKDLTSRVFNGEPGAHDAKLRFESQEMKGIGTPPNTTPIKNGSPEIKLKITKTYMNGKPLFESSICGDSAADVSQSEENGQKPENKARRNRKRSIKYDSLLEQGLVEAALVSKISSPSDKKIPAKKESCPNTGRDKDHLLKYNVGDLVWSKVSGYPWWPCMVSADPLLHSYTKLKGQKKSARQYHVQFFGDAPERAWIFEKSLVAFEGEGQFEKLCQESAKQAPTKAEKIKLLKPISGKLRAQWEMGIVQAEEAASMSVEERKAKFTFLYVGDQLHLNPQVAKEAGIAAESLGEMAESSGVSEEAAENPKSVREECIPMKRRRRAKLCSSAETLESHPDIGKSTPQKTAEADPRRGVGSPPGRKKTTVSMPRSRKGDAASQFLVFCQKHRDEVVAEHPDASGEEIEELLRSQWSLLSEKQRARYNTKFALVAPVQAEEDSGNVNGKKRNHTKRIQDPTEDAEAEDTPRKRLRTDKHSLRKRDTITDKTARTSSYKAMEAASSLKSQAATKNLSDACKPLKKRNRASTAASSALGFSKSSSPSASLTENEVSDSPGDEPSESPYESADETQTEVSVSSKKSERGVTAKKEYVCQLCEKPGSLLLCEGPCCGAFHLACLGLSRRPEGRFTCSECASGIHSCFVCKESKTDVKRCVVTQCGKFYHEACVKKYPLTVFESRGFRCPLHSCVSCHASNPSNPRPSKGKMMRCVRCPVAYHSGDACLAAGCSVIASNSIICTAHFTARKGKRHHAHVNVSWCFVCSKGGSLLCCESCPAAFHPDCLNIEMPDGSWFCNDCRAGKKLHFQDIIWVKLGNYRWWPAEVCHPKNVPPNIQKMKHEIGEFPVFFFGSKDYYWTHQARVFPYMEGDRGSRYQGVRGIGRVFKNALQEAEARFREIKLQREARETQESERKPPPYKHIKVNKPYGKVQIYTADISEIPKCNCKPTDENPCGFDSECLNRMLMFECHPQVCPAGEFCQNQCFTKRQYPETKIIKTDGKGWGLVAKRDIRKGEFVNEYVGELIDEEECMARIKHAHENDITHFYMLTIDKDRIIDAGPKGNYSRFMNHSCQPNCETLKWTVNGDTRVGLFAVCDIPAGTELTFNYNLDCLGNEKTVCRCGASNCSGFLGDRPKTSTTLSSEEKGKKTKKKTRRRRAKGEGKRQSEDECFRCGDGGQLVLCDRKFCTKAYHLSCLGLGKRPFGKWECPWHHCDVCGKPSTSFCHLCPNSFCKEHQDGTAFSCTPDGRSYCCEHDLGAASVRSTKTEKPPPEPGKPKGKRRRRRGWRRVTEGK

[13] = inhibitors of clade B AD8 Env fusion, dose response, cell-based, cherry-pick (AID 652062); assay type: functional;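 note: luciferase signal from cell-cell fusion driven by HIV-1 clade B AD8 Env; potency is for inhibitors of fusion seen as a drop in luminescence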
[14] = inhibitors of HIV Env-driven cell fusion, dose response, cherry-pick (AID 652057); assay type: functional, cell-based
[15] = P. falciparum Dd2 growth inhibitors, dose response, SYBR Green, cherry-picked samples (AID 1159567); assay type: functional, cell-based
[16] = growth suppression of PTEN-null colon cells, dose response, cell-based, HCT116 PTEN knockout (AID 1047); assay type: functional;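 note: HCT116 colon tumor cells with PTEN knocked out; cells exposed to compound for 60 hours before readout; potency for loss of cell viability measured by luminescence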
[17] = growth suppression of beta-catenin-knockout colon cells, dose response, cell-based, HCT116, human colon tumor (AID 1045); assay type: functional;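 note: HCT116 colon tumor cells with beta catenin knocked out; cells exposed to compound for 60 hours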

For C=CC[n+]1c(-c2ccc(C)cc2)csc1Nc1ccc(NC(C)=O)cc1, the EC50 [1] was 0.238 µM (active), the EC50 [2] was 0.246 µM (active) and the EC50 [3] was 2.34 µM (active). For the same compound, the AC50 [4] was 1.57 µM (active).
For N#C/C(=N\Nc1ccccc1)C(=N)N1CCCCCC1, the EC50 [5] was > 120 µM (not active) and the EC50 [6] was 0.132 µM (active).
For COc1ccc(N2C(=O)CSC2c2ccc([N+](=O)[O-])cc2)cc1 (stereo unspecified), the IC50 [7] was 46.8 µM (active), the IC50 [8] was 6.91 µM (active) and the AC50 [9] was 5.9 µM (active). For the same compound, the EC50 [10] was > 53 µM (inactive).
With O=C(NCCc1ccc(F)cc1)c1[nH]nc2ccccc12 the EC50 [11] was 42 µM (active), the EC50 [5] was 24.5 µM (active) and the EC50 [6] was 17.8 µM (active).
With CCN(CC)c1ccc(CN2CC=C(c3ccc(F)cc3)CC2)cc1 the AC50 [12] was > 20 µM (inactive).
In the case of COc1ccc(-c2ccc3c(c2)[C@@H]2[C@@H](CCN2C(=O)NC2CCCC2)[C@H](CO)N3C)cc1, the AC50 [13] is reported as 2.83 µM (active) and the AC50 [14] is reported as 26.5 µM (active).
For CCCC(=O)Nc1ccc2c(c1)OC[C@@H](C)N(Cc1cc(-c3ccccc3)on1)C[C@@H](C)[C@H](OC)CN(C)C2=O, the AC50 [15] was 5.19 µM (active).
For CCCNc1ccc(C(=O)OCC)cc1[N+](=O)[O-], the IC50 [7] was 17.6 µM (active), the IC50 [8] was > 20 µM (inactive) and the EC50 [10] was > 53 µM (inactive).
In the case of O=C(NCC1CCCO1)c1cc2c(s1)CCC2 (stereo unspecified), the EC50 [11] is reported as 18.7 µM (active), the EC50 [5] is reported as 50.9 µM (active) and the EC50 [6] is reported as 20.3 µM (active).
With C[C@@H]1CC=C[C@H]2[C@H]1C(=O)N(Cc1ccccc1)[C@H]2c1ccc(-c2cc3ccccc3s2)cc1F the EC50 [11] was 61.8 µM (active), the EC50 [5] was 0.11 µM (active) and the EC50 [6] was 0.251 µM (active).
In the case of Cc1ccc(S(=O)(=O)Cc2ccc(C(=O)N3CCN(c4ccc(F)cc4)CC3)o2)cc1, the EC50 [16] is reported as 9.74 µM (active) and the EC50 [17] is reported as 10.1 µM (active).
For O=C1NC(=S)N(C2CC2)C(=O)/C1=C/Nc1ccc2c(c1)OCO2, the EC50 [11] was 13.3 µM (active), the EC50 [5] was 18.7 µM (active) and the EC50 [6] was 95.4 µM (active).
